# Experimental data: ChEMBL document CHEMBL5634115, “Exploring novel anticancer pyrazole benzenesulfonamides featuring tail approach strategy as carbonic anhydrase inhibitors” (Eur J Med Chem, 2023)
# Tests used:
# Assay in all cases: cells
# [1] = tested on: SF-295; assay type: functional; conditions: Homo sapiens, time 48 hrs
# Description: Cytostatic activity against human SF-295 cells assessed as total growth inhibition measured after 48 hrs by sulforhodamine B assay
# [2] = tested on: OVCAR-8; conditions: Homo sapiens, OVCAR-8, 48 h, read-out: LC50
# Description: Cytotoxicity activity against human OVCAR-8 cells assessed as reduction in cell growth measured after 48 hrs by sulforhodamine B assay
# [3] = tested on: CCRF-CEM; assay type: functional; conditions: Homo sapiens, time 48 hrs
# Description: Cytostatic activity against human CCRF-CEM cells assessed as total growth inhibition measured after 48 hrs by sulforhodamine B assay
# [4] = tested on: HCT-116; assay type: functional; conditions: Homo sapiens, time 48 hrs
# Description: Growth inhibition of human HCT-116 cells measured after 48 hrs by sulforhodamine B assay
# [5] = tested on: NCI/ADR-RES; assay type: functional; conditions: Homo sapiens, time 48 hrs
# Description: Cytostatic activity against human NCI/ADR-RES cells assessed as total growth inhibition measured after 48 hrs by sulforhodamine B assay
# [6] = tested on: Malme-3M; assay type: functional; conditions: Homo sapiens, time 48 hrs
# [7] = tested on: NCI-H322M; conditions: Homo sapiens, 48 h, read-out: LC50
# Description: Cytotoxicity activity against human NCI-H322M cells assessed as reduction in cell growth measured after 48 hrs by sulforhodamine B assay
# [8] = tested on: Hs-578T; assay type: functional; conditions: Homo sapiens, time 48 hrs
# Description: Growth inhibition of human Hs-578T cells measured after 48 hrs by sulforhodamine B assay
# [9] = tested on: HOP-92; assay type: functional; conditions: Homo sapiens, time 48 hrs
# Description: Cytostatic activity against human HOP-92 cells assessed as total growth inhibition measured after 48 hrs by sulforhodamine B assay
# [10] = tested on: RPMI-8226; assay type: functional; conditions: Homo sapiens, time 48 hrs
# Description: Growth inhibition of human RPMI-8226 cells measured after 48 hrs by sulforhodamine B assay
# [11] = tested on: OVCAR-8; assay type: functional; conditions: Homo sapiens, time 48 hrs
# Description: Growth inhibition of human OVCAR-8 cells measured after 48 hrs by sulforhodamine B assay
# [12] = tested on: T47D; conditions: Homo sapiens, 48 h, read-out: LC50
# Description: Cytotoxicity activity against human T47D cells assessed as reduction in cell growth measured after 48 hrs by sulforhodamine B assay
# [13] = tested on: SF-539; assay type: functional; conditions: Homo sapiens, time 48 hrs
# Description: Cytostatic activity against human SF-539 cells assessed as total growth inhibition measured after 48 hrs by sulforhodamine B assay
# [14] = tested on: PC-3; conditions: Homo sapiens, PC-3, 48 h, read-out: LC50
# Description: Cytotoxicity activity against human PC-3 cells assessed as reduction in cell growth measured after 48 hrs by sulforhodamine B assay
# [15] = tested on: A549; assay type: functional; conditions: Homo sapiens, time 48 hrs
# Description: Growth inhibition of human A549 cells measured after 48 hrs by sulforhodamine B assay
# [16] = tested on: EKVX; assay type: functional; conditions: Homo sapiens, time 48 hrs
# Description: Growth inhibition of human EKVX cells measured after 48 hrs by sulforhodamine B assay
# [17] = tested on: PC-3; assay type: functional; conditions: Homo sapiens, time 48 hrs
# Description: Growth inhibition of human PC-3 cells measured after 48 hrs by sulforhodamine B assay
# [18] = tested on: NCI-H23; conditions: Homo sapiens, NCI-H23, 48 h, read-out: LC50
# Description: Cytotoxicity activity against human NCI-H23 cells assessed as reduction in cell growth measured after 48 hrs by sulforhodamine B assay
# [19] = tested on: HL-60(TB); assay type: functional; conditions: Homo sapiens, time 48 hrs
# Description: Cytostatic activity against human HL-60(TB) cells assessed as total growth inhibition measured after 48 hrs by sulforhodamine B assay
# [20] = tested on: NCI-H460; assay type: functional; conditions: Homo sapiens, time 48 hrs
# Description: Cytostatic activity against human NCI-H460 cells assessed as total growth inhibition measured after 48 hrs by sulforhodamine B assay
# [21] = tested on: SN12C; conditions: Homo sapiens, 48 h, read-out: LC50
# Description: Cytotoxicity activity against human SN12C cells assessed as reduction in cell growth measured after 48 hrs by sulforhodamine B assay
# [22] = tested on: MCF7; assay type: functional; conditions: Homo sapiens, time 48 hrs
# Description: Cytostatic activity against human MCF7 cells assessed as total growth inhibition measured after 48 hrs by sulforhodamine B assay
# [23] = tested on: NCI-H23; assay type: functional; conditions: Homo sapiens, time 48 hrs
# Description: Growth inhibition of human NCI-H23 cells measured after 48 hrs by sulforhodamine B assay
# [24] = tested on: SNB-19; conditions: Homo sapiens, SNB-19, 48 h, read-out: LC50
# Description: Cytotoxicity activity against human SNB-19 cells assessed as reduction in cell growth measured after 48 hrs by sulforhodamine B assay
# [25] = tested on: OVCAR-3; assay type: functional; conditions: Homo sapiens, time 48 hrs
# Description: Cytostatic activity against human OVCAR-3 cells assessed as total growth inhibition measured after 48 hrs by sulforhodamine B assay
# [26] = tested on: SF-295; assay type: functional; conditions: Homo sapiens, time 48 hrs; remark: listed apart in the source
# Description: Growth inhibition of human SF-295 cells measured after 48 hrs by sulforhodamine B assay
# [27] = tested on: SK-MEL-5; assay type: functional; conditions: Homo sapiens, time 48 hrs
# Description: Cytostatic activity against human SK-MEL-5 cells assessed as total growth inhibition measured after 48 hrs by sulforhodamine B assay
# [28] = tested on: NCI-H460; assay type: functional; conditions: Homo sapiens, time 48 hrs; remark: listed apart in the source
# Description: Growth inhibition of human NCI-H460 cells measured after 48 hrs by sulforhodamine B assay
# [29] = tested on: NCI/ADR-RES; assay type: functional; conditions: Homo sapiens, time 48 hrs; remark: listed apart in the source
# Description: Growth inhibition of human NCI/ADR-RES cells measured after 48 hrs by sulforhodamine B assay
# [30] = tested on: HOP-62; conditions: Homo sapiens, HOP-62, 48 h, read-out: LC50
# Description: Cytotoxicity activity against human HOP-62 cells assessed as reduction in cell growth measured after 48 hrs by sulforhodamine B assay
# [31] = tested on: SNB-75; assay type: functional; conditions: Homo sapiens, time 48 hrs
# Description: Cytostatic activity against human SNB-75 cells assessed as total growth inhibition measured after 48 hrs by sulforhodamine B assay
# [32] = tested on: UACC-257; assay type: functional; conditions: Homo sapiens, time 48 hrs
# Description: Growth inhibition of human UACC-257 cells measured after 48 hrs by sulforhodamine B assay
# [33] = tested on: Hs-578T; conditions: Homo sapiens, 48 h, read-out: LC50
# Description: Cytotoxicity activity against human Hs-578T cells assessed as reduction in cell growth measured after 48 hrs by sulforhodamine B assay
# [34] = tested on: MDA-MB-468; assay type: functional; conditions: Homo sapiens, time 48 hrs
# Description: Cytostatic activity against human MDA-MB-468 cells assessed as total growth inhibition measured after 48 hrs by sulforhodamine B assay
# [35] = tested on: NCI-H322M; assay type: functional; conditions: Homo sapiens, time 48 hrs
# Description: Cytostatic activity against human NCI-H322M cells assessed as total growth inhibition measured after 48 hrs by sulforhodamine B assay
# [36] = tested on: MOLT-4; conditions: Homo sapiens, MOLT-4, 48 h, read-out: LC50
# Description: Cytotoxicity activity against human MOLT-4 cells assessed as reduction in cell growth measured after 48 hrs by sulforhodamine B assay
# [37] = tested on: T47D; assay type: functional; conditions: Homo sapiens, time 48 hrs
# Description: Growth inhibition of human T47D cells measured after 48 hrs by sulforhodamine B assay
# [38] = tested on: UACC-62; assay type: functional; conditions: Homo sapiens, time 48 hrs
# Description: Cytostatic activity against human UACC-62 cells assessed as total growth inhibition measured after 48 hrs by sulforhodamine B assay
# [39] = tested on: OVCAR-4; assay type: functional; conditions: Homo sapiens, time 48 hrs
# Description: Growth inhibition of human OVCAR-4 cells measured after 48 hrs by sulforhodamine B assay
# [40] = tested on: MDA-MB-231; conditions: Homo sapiens, MDA-MB-231, 48 h, read-out: LC50
# Description: Cytotoxicity activity against human MDA-MB-231 cells assessed as reduction in cell growth measured after 48 hrs by sulforhodamine B assay
# [41] = tested on: MDA-MB-468; assay type: functional; conditions: Homo sapiens, time 48 hrs; remark: listed apart in the source
# Description: Growth inhibition of human MDA-MB-468 cells measured after 48 hrs by sulforhodamine B assay
# [42] = tested on: CCRF-CEM; conditions: Homo sapiens, 48 h, read-out: LC50
# Description: Cytotoxicity activity against human CCRF-CEM cells assessed as reduction in cell growth measured after 48 hrs by sulforhodamine B assay
# [43] = tested on: COLO 205; assay type: functional; conditions: Homo sapiens, time 48 hrs
# Description: Cytostatic activity against human COLO 205 cells assessed as total growth inhibition measured after 48 hrs by sulforhodamine B assay
# [44] = tested on: IGROV-1; assay type: functional; conditions: Homo sapiens, time 48 hrs
# Description: Growth inhibition of human IGROV-1 cells measured after 48 hrs by sulforhodamine B assay
# [45] = tested on: HL-60(TB); conditions: Homo sapiens, HL-60, 48 h, read-out: LC50
# Description: Cytotoxicity activity against human HL-60(TB) cells assessed as reduction in cell growth measured after 48 hrs by sulforhodamine B assay
# [46] = tested on: PC-3; assay type: functional; conditions: Homo sapiens, time 48 hrs; remark: listed apart in the source
# Description: Cytostatic activity against human PC-3 cells assessed as total growth inhibition measured after 48 hrs by sulforhodamine B assay
# [47] = tested on: SK-OV-3; assay type: functional; conditions: Homo sapiens, time 48 hrs
# Description: Cytostatic activity against human SK-OV-3 cells assessed as total growth inhibition measured after 48 hrs by sulforhodamine B assay
# [48] = tested on: HL-60(TB); assay type: functional; conditions: Homo sapiens, time 48 hrs; remark: listed apart in the source
# Description: Growth inhibition of human HL-60(TB) cells measured after 48 hrs by sulforhodamine B assay
# [49] = tested on: HCC 2998; assay type: functional; conditions: Homo sapiens, time 48 hrs
# Description: Growth inhibition of human HCC 2998 cells measured after 48 hrs by sulforhodamine B assay
# [50] = tested on: DU-145; assay type: functional; conditions: Homo sapiens, time 48 hrs
# Description: Growth inhibition of human DU-145 cells measured after 48 hrs by sulforhodamine B assay
# [51] = tested on: LOX IMVI; assay type: functional; conditions: Homo sapiens, time 48 hrs
# Description: Cytostatic activity against human LOX IMVI cells assessed as total growth inhibition measured after 48 hrs by sulforhodamine B assay
# [52] = tested on: KM12; conditions: Homo sapiens, KM12, 48 h, read-out: LC50
# Description: Cytotoxicity activity against human KM12 cells assessed as reduction in cell growth measured after 48 hrs by sulforhodamine B assay
# [53] = tested on: UACC-257; assay type: functional; conditions: Homo sapiens, time 48 hrs; remark: listed apart in the source
# Description: Cytostatic activity against human UACC-257 cells assessed as total growth inhibition measured after 48 hrs by sulforhodamine B assay
# [54] = tested on: BT-549; assay type: functional; conditions: Homo sapiens, time 48 hrs
# Description: Growth inhibition of human BT-549 cells measured after 48 hrs by sulforhodamine B assay
# [55] = tested on: EKVX; conditions: Homo sapiens, 48 h, read-out: LC50
# Description: Cytotoxicity activity against human EKVX cells assessed as reduction in cell growth measured after 48 hrs by sulforhodamine B assay
# [56] = tested on: MDA-MB-435; assay type: functional; conditions: Homo sapiens, time 48 hrs
# Description: Cytostatic activity against human MDA-MB-435 cells assessed as total growth inhibition measured after 48 hrs by sulforhodamine B assay
# [57] = tested on: UACC-62; conditions: Homo sapiens, UACC-62, 48 h, read-out: LC50
# Description: Cytotoxicity activity against human UACC-62 cells assessed as reduction in cell growth measured after 48 hrs by sulforhodamine B assay
# [58] = tested on: IGROV-1; conditions: Homo sapiens, IGROV-1, 48 h, read-out: LC50
# Description: Cytotoxicity activity against human IGROV-1 cells assessed as reduction in cell growth measured after 48 hrs by sulforhodamine B assay
# [59] = tested on: MCF7; conditions: Homo sapiens, MCF7, 48 h, read-out: LC50
# Description: Cytotoxicity activity against human MCF7 cells assessed as reduction in cell growth measured after 48 hrs by sulforhodamine B assay
# [60] = tested on: A498; conditions: Homo sapiens, A498, 48 h, read-out: LC50
# Description: Cytotoxicity activity against human A498 cells assessed as reduction in cell growth measured after 48 hrs by sulforhodamine B assay
# [61] = tested on: A498; assay type: functional; conditions: Homo sapiens, time 48 hrs
# Description: Cytostatic activity against human A498 cells assessed as total growth inhibition measured after 48 hrs by sulforhodamine B assay
# [62] = tested on: M14; conditions: Homo sapiens, M14, 48 h, read-out: LC50
# Description: Cytotoxicity activity against human M14 cells assessed as reduction in cell growth measured after 48 hrs by sulforhodamine B assay
# [63] = tested on: SK-MEL-2; conditions: Homo sapiens, SK-MEL-2, 48 h, read-out: LC50
# Description: Cytotoxicity activity against human SK-MEL-2 cells assessed as reduction in cell growth measured after 48 hrs by sulforhodamine B assay
smiles,measurement,setting,value
CCOC(=O)c1ccc(N/N=C/c2cn(-c3ccc(S(N)(=O)=O)cc3)nc2-c2ccc(C)cc2)cc1,TGI,[1],24.8 µM
same,CC50,[2],> 100 µM
same,TGI,[3],57.4 µM
same,GI50,[4],3.11 µM
same,TGI,[5],10.9 µM
same,GI50,[6],7.32 µM
same,CC50,[7],> 100 µM
same,GI50,[8],2.76 µM
same,TGI,[9],2.79 µM
same,GI50,[10],3.24 µM
same,GI50,[11],5.68 µM
same,CC50,[12],> 100 µM
same,TGI,[13],8.03 µM
same,CC50,[14],> 100 µM
same,GI50,[15],4.07 µM
same,GI50,[16],3.17 µM
same,GI50,[17],3.13 µM
same,CC50,[18],94.5 µM
same,TGI,[19],14.1 µM
same,TGI,[20],2.43 µM
same,CC50,[21],> 100 µM
same,TGI,[22],7.77 µM
same,GI50,[23],3.26 µM
same,CC50,[24],> 100 µM
same,TGI,[25],7.27 µM
same,GI50,[26],6.92 µM
same,TGI,[27],10.2 µM
same,GI50,[28],2.43 µM
same,GI50,[29],2.94 µM
same,CC50,[30],> 100 µM
same,TGI,[31],46.4 µM
same,GI50,[32],13.2 µM
same,CC50,[33],> 100 µM
same,TGI,[34],16 µM
same,TGI,[35],5.38 µM
same,CC50,[36],> 100 µM
same,GI50,[37],3.89 µM
same,TGI,[38],21.5 µM
same,GI50,[39],7.08 µM
same,CC50,[40],58 µM
same,GI50,[41],3.51 µM
same,CC50,[42],> 100 µM
same,TGI,[43],44.3 µM
same,GI50,[44],5.13 µM
same,CC50,[45],> 100 µM
same,TGI,[46],38.1 µM
same,TGI,[47],> 100 µM
same,GI50,[48],3.05 µM
same,GI50,[49],2.05 µM
same,GI50,[50],5.06 µM
same,TGI,[51],3.15 µM
same,CC50,[52],10.6 µM
same,TGI,[53],37 µM
same,GI50,[54],10.8 µM
same,CC50,[55],> 100 µM
same,TGI,[56],8.96 µM
same,CC50,[57],59.8 µM
same,CC50,[58],> 100 µM
same,CC50,[59],> 100 µM
same,CC50,[60],> 100 µM
same,TGI,[61],31.8 µM
same,CC50,[62],7.31 µM
same,CC50,[63],> 100 µM
